Reference: patent US5086042A, “Peptides with sulfate ester groups” (Fisons Corporation, priority 1989, dated 1992)
Non-standard residues stand in square brackets, D forms with d. Residues, ends and D or L forms follow the SMILES beside them. sY = N[C@@H](Cc1ccc(OS(=O)(=O)O)cc1)C(=O)O

Test system: Male Sprague-Dawley rats
Assay type: in vivo
Conditions: rat, intraperitoneal; for % FEEDING INHIBITION 0.5 hr / % FEEDING INHIBITION 3 hr: 30 μg/kg, vs saline controls; for % FEEDING INHIBITION 0.5 hr / % FEEDING INHIBITION 0.5 hr (values marked *): 0.5 hr feeding period; for % FEEDING INHIBITION 3 hr / % FEEDING INHIBITION 3 hr (values marked *): 3 hr feeding period; for % FEEDING INHIBITION 3 hr: IA means inactive; for % FEEDING INHIBITION 3 hr (values marked *) / % FEEDING INHIBITION 0.5 hr (values marked *): 300 μg/kg, <10% inhibition at 30 μg/kg
Method: The peptides of this invention have the ability to inhibit feeding activity in mammals. As a result they have utility in the prevention and treatment of obesity.
Male Sprague-Dawley rats (weighing 300-350 g) are individually caged and maintained on a 12 hr. light, dark cycle and trained for at least 14 days to feed during a three hr period of the dark cycle but not the 21 hours preceding that three hr period. The day of the study, rats are dosed intraperitoneally with saline (controls) or test compound (dissolved in saline; usually at a concentration of 0.3 to 300 micrograms of test compound per kg of rat weight). Food is introduced 10 minutes after administration of saline or test compound. […] The % feeding inhibition for the 1/2 hr and 3 hr feeding periods obtained by administering a dose of 30 μg/kg of test compound is given in Table 2 for CCK-8 and various compounds of the invention. For example, the % feeding inhibition obtained with CCK-8 (first line of Table 2) was 70% for the 1/2 hr feeding period and 25% for the 3-hour period.

## CSCC[C@H](NC(=O)[C@H](Cc1ccc(OS(=O)(=O)O)cc1)NC(=O)[C@@H](N)CC(=O)O)C(=O)NCC(=O)N[C@@H](Cc1c[nH]c2ccccc12)C(=O)N[C@@H](CCSC)C(=O)N[C@@H](CC(=O)O)C(=O)N[C@@H](Cc1ccccc1)C(N)=O [CCK-8, Asp-Tyr(SO3 H)-Met-Gly-Trp-Met-Asp-Phe-NH2, reference compound]
  % FEEDING INHIBITION 0.5 hr: 70%
  % FEEDING INHIBITION 3 hr: 25%

## CSCC[C@H](NC(=O)[C@H](Cc1ccc(OS(=O)(=O)O)cc1)NC=O)C(=O)NCC(=O)N[C@@H](Cc1c[nH]c2ccccc12)C(=O)N[C@@H](CCSC)C(=O)N[C@@H](CC(=O)O)C(=O)N[C@@H](Cc1ccccc1)C(N)=O [For-Tyr(SO3 H)-Met-Gly-Trp-Met-Asp-Phe-NH2] (HELM PEPTIDE1{[O=C[*:2]].[O=C([C@H](Cc1ccc(OS(=O)(=O)O)cc1)N[*:1])[*:2]].M.G.W.M.D.F.[am]}$$$$V2.0)
  % FEEDING INHIBITION 0.5 hr: 100%
  % FEEDING INHIBITION 3 hr: 66%

## CSCC[C@H](NC(=O)[C@H](Cc1ccc(OS(=O)(=O)O)cc1)NC(=O)[C@@H](N)CC(=O)O)C(=O)NCC(=O)N[C@@H](Cc1c[nH]c2ccccc12)C(=O)N[C@@H](CCSC)C(=O)N[C@@H](CC(=O)O)C(=O)N[C@@H](Cc1ccc(Cl)cc1)C(N)=O [H-As-Tyr(SO3 H)-Met-Gly-Trp-Met-Asp-Phe(4-Cl)-NH2]
  % FEEDING INHIBITION 0.5 hr: 54%
  % FEEDING INHIBITION 3 hr (values marked *): 28%

## CSCC[C@H](NC(=O)[C@H](Cc1c[nH]c2ccccc12)NC(=O)CNC(=O)[C@@H](CCSC)NC(=O)[C@H](Cc1ccc(OS(=O)(=O)O)cc1)NC(=O)[C@@H](N)CC(=O)O)C(=O)N[C@@H](CC(=O)O)C(=O)N[C@@H](Cc1ccccc1)C(N)=O [H-Asp-Tyr(SO3 H)-DMet-Gly-Trp-Met-Asp-Phe-NH3]
  % FEEDING INHIBITION 0.5 hr: 17%

## CC[C@H](C)[C@H](NC(=O)[C@H](Cc1ccc(OS(=O)(=O)O)cc1)NC(=O)[C@@H](N)CC(=O)O)C(=O)NCC(=O)N[C@@H](Cc1c[nH]c2ccccc12)C(=O)N[C@H](C(=O)N[C@@H](CC(=O)O)C(=O)N[C@@H](Cc1ccccc1)C(N)=O)[C@@H](C)CC [H-Asp-Tyr(SO3 H)-Ile-Gly-Trp-Ile-Asp-Phe-NH2] (HELM PEPTIDE1{D.[O=C([C@H](Cc1ccc(OS(=O)(=O)O)cc1)N[*:1])[*:2]].I.G.W.I.D.F.[am]}$$$$V2.0)
  % FEEDING INHIBITION 0.5 hr: 85%
  % FEEDING INHIBITION 3 hr: 20%

## CC(C)C[C@H](NC(=O)[C@H](Cc1ccc(OS(=O)(=O)O)cc1)NC(=O)[C@@H](N)CC(=O)O)C(=O)NCC(=O)N[C@@H](Cc1c[nH]c2ccccc12)C(=O)N[C@@H](CC(C)C)C(=O)N[C@@H](CC(=O)O)C(=O)N[C@@H](Cc1ccccc1)C(N)=O [H-Asp-Tyr(SO3 H)-Leu-Gly-Trp-Leu-Asp-Phe-NH2]
  % FEEDING INHIBITION 0.5 hr: 89%
  % FEEDING INHIBITION 3 hr: 24%

## NCCCC[C@H](NC(=O)[C@H](Cc1ccc(OS(=O)(=O)O)cc1)NC(=O)[C@@H](N)CC(=O)O)C(=O)NCC(=O)N[C@@H](Cc1c[nH]c2ccccc12)C(=O)N[C@@H](CCCCN)C(=O)N[C@@H](CC(=O)O)C(=O)N[C@@H](Cc1ccccc1)C(N)=O [H-Asp-Tyr(SO3 H)-Lys-Gly-Trp-Lys-Asp-Phe-NH2] (HELM PEPTIDE1{D.[O=C([C@H](Cc1ccc(OS(=O)(=O)O)cc1)N[*:1])[*:2]].K.G.W.K.D.F.[am]}$$$$V2.0)
  % FEEDING INHIBITION 0.5 hr (values marked *): 45%

## CSCC[C@H](NC(=O)[C@H](Cc1c[nH]c2ccccc12)NC(=O)[C@@H](C)NC(=O)[C@H](CCSC)NC(=O)[C@H](Cc1ccc(OS(=O)(=O)O)cc1)NC(=O)[C@@H](N)CC(=O)O)C(=O)N[C@@H](CC(=O)O)C(=O)N[C@@H](Cc1ccccc1)C(N)=O [H-Asp-Tyr(SO3 H)-Met-DAla-Trp-Met-Asp-Phe-NH2] (HELM PEPTIDE1{D.[O=C([C@H](Cc1ccc(OS(=O)(=O)O)cc1)N[*:1])[*:2]].M.[dA].W.M.D.F.[am]}$$$$V2.0)
  % FEEDING INHIBITION 0.5 hr: 16%
  % FEEDING INHIBITION 3 hr (values marked *): 18%

## CSCC[C@H](NC(=O)[C@H](Cc1ccc(OS(=O)(=O)O)cc1)NC(=O)[C@@H](N)CC(=O)O)C(=O)NCC(=O)N[C@H](Cc1c[nH]c2ccccc12)C(=O)N[C@@H](CCSC)C(=O)N[C@@H](CC(=O)O)C(=O)N[C@@H](Cc1ccccc1)C(N)=O [H-Asp-Tyr(SO3 H)-Met-Gly-DTrp-Met-Asp-Phe-NH2]
  % FEEDING INHIBITION 0.5 hr (values marked *): 42%

## CSCC[C@H](NC(=O)[C@H](Cc1ccc(OS(=O)(=O)O)cc1)NC(=O)[C@@H](N)CC(=O)O)C(=O)NCC(=O)N[C@@H](Cc1c[nH]c2ccccc12)C(=O)N[C@H](CCSC)C(=O)N[C@@H](CC(=O)O)C(=O)N[C@@H](Cc1ccccc1)C(N)=O [H-Asp-Tyr(SO3 H)-Met-Gly-Trp-DMet-Asp-Phe-NH2]
  % FEEDING INHIBITION 0.5 hr (values marked *): 30%

## CSCC[C@H](NC(=O)[C@H](Cc1ccc(OS(=O)(=O)O)cc1)NC(=O)[C@@H](N)CC(=O)O)C(=O)NCC(=O)N[C@@H](Cc1c[nH]c2ccccc12)C(=O)N[C@@H](CCSC)C(=O)N[C@@H](CC(N)=O)C(=O)N[C@@H](Cc1ccccc1)C(N)=O [H-Asp-Tyr(SO3 H)-Met-Gly-Trp-Met-Asn-Phe-NH2] (HELM PEPTIDE1{D.[O=C([C@H](Cc1ccc(OS(=O)(=O)O)cc1)N[*:1])[*:2]].M.G.W.M.N.F.[am]}$$$$V2.0)
  % FEEDING INHIBITION 0.5 hr (values marked *): 43%

## CSCC[C@H](NC(=O)[C@H](Cc1ccc(OS(=O)(=O)O)cc1)NC(=O)[C@@H](N)CC(=O)O)C(=O)NCC(=O)N[C@@H](Cc1c[nH]c2ccccc12)C(=O)N[C@@H](CCSC)C(=O)N[C@@H](CC(=O)O)C(=O)N[C@@H](Cc1ccc(C)cc1)C(N)=O [H-Asp-Tyr(SO3 H)-Met-Gly-Trp-Met-Asp-Phe(4-Me)-NH2]
  % FEEDING INHIBITION 0.5 hr: 57%
  % FEEDING INHIBITION 3 hr: 18%

## CSCC[C@H](NC(=O)[C@H](Cc1ccc(OS(=O)(=O)O)cc1)NC(=O)[C@@H](N)CC(=O)O)C(=O)NCC(=O)N[C@@H](Cc1c[nH]c2ccccc12)C(=O)N[C@@H](CCSC)C(=O)N[C@@H](CC(=O)O)C(=O)N[C@@H](Cc1ccc(N)cc1)C(N)=O [H-Asp-Tyr(SO3 H)-Met-Gly-Trp-Met-Asp-Phe(4-NH2)-NH2]
  % FEEDING INHIBITION 0.5 hr: 27%

## CSCC[C@H](NC(=O)[C@H](Cc1ccc(OS(=O)(=O)O)cc1)NC(=O)[C@@H](N)CC(=O)O)C(=O)NCC(=O)N[C@@H](Cc1c[nH]c2ccccc12)C(=O)N[C@@H](CCSC)C(=O)N[C@@H](CC(=O)O)C(=O)N[C@@H](Cc1ccc([N+](=O)[O-])cc1)C(N)=O [H-Asp-Tyr(SO3 H)-Met-Gly-Trp-Met-Asp-Phe(4-NO2)-NH2]
  % FEEDING INHIBITION 0.5 hr: 43%
  % FEEDING INHIBITION 3 hr: 17%

## CCNC(=O)[C@H](Cc1ccccc1)NC(=O)[C@H](CC(=O)O)NC(=O)[C@H](CCSC)NC(=O)[C@H](Cc1c[nH]c2ccccc12)NC(=O)CNC(=O)[C@H](CCSC)NC(=O)[C@H](Cc1ccc(OS(=O)(=O)O)cc1)NC(=O)[C@@H](N)CC(=O)O [H-Asp-Tyr(SO3 H)-Met-Gly-Trp-Met-Asp-Phe-NHEt]
  % FEEDING INHIBITION 0.5 hr: 16%

## COc1ccc(C[C@H](NC(=O)[C@H](CC(=O)O)NC(=O)[C@H](CCSC)NC(=O)[C@H](Cc2c[nH]c3ccccc23)NC(=O)CNC(=O)[C@H](CCSC)NC(=O)[C@H](Cc2ccc(OS(=O)(=O)O)cc2)NC(=O)[C@@H](N)CC(=O)O)C(N)=O)cc1 [H-Asp-Tyr(SO3 H)-Met-Gly-Trp-Met-Asp-Tyr(Me)-NH2] (H-D[sY]MGWMDY(Me)-NH2)
  % FEEDING INHIBITION 0.5 hr (values marked *): 72%

## CSCC[C@H](NC(=O)[C@H](Cc1ccc(OS(=O)(=O)O)cc1)NC(=O)[C@@H](N)CC(=O)O)C(=O)NCC(=O)N[C@@H](Cc1c[nH]c2ccccc12)C(=O)N[C@@H](CCSC)C(=O)N[C@H](CC(=O)O)C(=O)N[C@@H](Cc1ccccc1)C(N)=O [H-Asp-Tyr(SO3 H)-Met-Gly-Trp-Met-DAsp-Phe-NH2]
  % FEEDING INHIBITION 0.5 hr: 32%
  % FEEDING INHIBITION 3 hr (values marked *): 15%

## CSCC[C@H](NC(=O)[C@H](Cc1ccc(OS(=O)(=O)O)cc1)NC(=O)[C@@H](N)CC(=O)O)C(=O)NCC(=O)N[C@@H](Cc1c[nH]c2ccccc12)C(=O)N[C@@H](CCSC)C(=O)N[C@@H](CC(=O)O)C(=O)N[C@H](Cc1ccccc1)C(N)=O [H-Asp-Tyr(SO3 H)-Met-Gly-Trp-Met]
  % FEEDING INHIBITION 0.5 hr: 46%
  % FEEDING INHIBITION 3 hr (values marked *): 14%

## CSCC[C@H](NC(=O)[C@H](Cc1c[nH]c2ccccc12)NC(=O)CN(C)C(=O)[C@H](CCSC)NC(=O)[C@H](Cc1ccc(OS(=O)(=O)O)cc1)NC(=O)[C@@H](N)CC(=O)O)C(=O)N[C@@H](CC(=O)O)C(=O)N[C@@H](Cc1ccccc1)C(N)=O [H-Asp-Tyr(SO3 H)-Met-Sar-Trp-Met-Asp-Phe-NH2]
  % FEEDING INHIBITION 0.5 hr (values marked *): 55%

## CSCC[C@H](NC(=O)[C@H](Cc1ccc(OS(=O)(=O)O)cc1)NC(=O)[C@@H](N)CC(=O)O)C(=O)NCC(=O)N[C@@H](Cc1ccc2ccccc2c1)C(=O)N[C@@H](CCSC)C(=O)N[C@@H](CC(=O)O)C(=O)N[C@@H](Cc1ccccc1)C(N)=O [H-Asp-Tyr(SO3)-Met-Gly-Nal-Met-Asp-Phe-NH2] (HELM PEPTIDE1{D.[O=C([C@H](Cc1ccc(OS(=O)(=O)O)cc1)N[*:1])[*:2]].M.G.[O=C([C@H](Cc1ccc2ccccc2c1)N[*:1])[*:2]].M.D.F.[am]}$$$$V2.0)
  % FEEDING INHIBITION 0.5 hr (values marked *): 52%

## CNC(=O)[C@H](Cc1ccccc1)NC(=O)[C@H](CC(=O)O)NC(=O)[C@H](CCSC)NC(=O)[C@H](Cc1c[nH]c2ccccc12)NC(=O)CNC(=O)[C@H](CCSC)NC(=O)[C@H](Cc1ccc(OS(=O)(=O)O)cc1)NC(=O)[C@@H](N)CC(=O)O [H-Asp-Tyr(SO 3 H)-Met-Gly-Trp-Met-Asp-Phe-NHMe]
  % FEEDING INHIBITION 0.5 hr (values marked *): 13%
